According to patent US20110319346A1, “ELECTROSTATIC PROTEIN/GLUCOSINOLATE COMPLEXES” (NESTEC S.A., priority 2009, published 2011):

Experiments:
β-lactoglobulin (BLG) = molecular target: T1, β-lactoglobulin (BLG) (Bos taurus, UniProt P02754); assay: Binding curve of sinigrin to β-lactoglobulin (ultrafiltration, SEC of free SIN); set-up: species or system bovine; conditions: for number of maximum binding sites (nmax): SIN to BLG, acidic conditions (pH 4.0), 25° C.
T1 construct: The composition in the major whey protein fraction was 89.22% BLG; purchased Davisco Biopure, lot JE 001-3-922
T1 sequence (P02754 17-178): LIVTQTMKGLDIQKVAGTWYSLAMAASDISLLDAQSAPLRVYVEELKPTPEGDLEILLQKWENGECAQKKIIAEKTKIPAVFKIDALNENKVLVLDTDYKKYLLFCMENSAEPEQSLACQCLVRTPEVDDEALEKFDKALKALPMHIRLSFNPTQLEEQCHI
Method: β-Lactoglobulin (BLG) powder was dispersed in Millipore® water by stirring at room temperature for 1 hour. The protein powder was purchased from Davisco (Biopure, lot JE 001-3-922). The protein content was 93.5 g/100 g of powder, as determined by Kjeldahl analysis (N×6.38). The composition in the major whey protein fraction was 89.22% BLG, 6.91% […], 3.87% bovine serum albumin, as determined by reversed phase HPLC(RP-HPLC); 0.2% fat, 1.5% ash and 4.9% moisture, as specified by the supplier. The mineral composition was as follows: 0.87% Na^+, <0.004% K^+, <0.04% Cl^−, 0.019% Ca^2+, 0.053% P, 0.002% Mg^2+, as determined by atomic absorption spectroscopy.
Concentration of the BLG in the protein solution was 1 mM (1.84% w/w). It was stored overnight at 4° C. to allow hydration. The next day, the protein dispersion was filtered using a Stericup filtration system (Millipore®) with 0.22 μm GP Express Plus membrane. The filtered dispersion (pH 7.2) was either used directly for sample preparation, or it was previously acidified to pH 4.0 using 1M HCl. The amount of 1M HCl added in the latter case was about 1% of the total volume.
The glucosinolate solution was prepared on the day of the experiment by dissolving sinigrin (SIN) in Millipore® water to obtain a concentration 20 or 40 mM (0.83. or 1.66% w/w). Sinigrin hydrate (allyl glucosinolate) 99%, was purchased from Sigma (lot 1291054). For the experiments under acidic conditions, SIN solution was acidified to pH 4.0. The amount of 1M HCl added in the latter case was about 1% of the total volume. […]
After incubation, 2×1.5 mL of mixtures were centrifuged using Centrisart® I centrifugal ultrafiltration units with cellulose triacetate ultrafilters having molecular weight cut-off of 10 kDa (Sartorious, Germany) in a Sorvall RC 3C PLUS centrifuge with a swing bucket rotor (Thermo, Switzerland), for 30 min at 2900×g. Ultrafiltrates were collected, diluted 10 times in Millipore® water, and then analyzed by size exclusion HPLC (SEC) to determine the amount of free (unbound) SIN in each sample. […]

[1] = Emulsifying properties: 10% oil-in-water emulsions, stability to creaming and flocculation; format: physicochemical; conditions: 10% oil-in-water emulsion, pH 4.0, without or with heat treatment
Method: Emulsifying properties of samples at pH 4.0 (prepared as described in example 1) were evaluated by preparing emulsions containing 10% (w/w) of “high oleic” sunflower oil (Oleifico SABO, Manno, Switzerland). Samples with SIN to BLG molar ratio 10 with or without heat treatment were diluted to 0.25 mM BLG and mixed with oil in a Pyrex® tube (D 25 mm, V 35 mL) to a final weight of 20 g. They were pre-homogenized using an Ultra Turrax® T25 equipped with a S25N-10G dispersing head (IKA-Werke, Staufen, Germany) rotating at 16,000 rpm for 1 minute. Homogenization of emulsions was completed using an ultrasonic processor (Hielscher UP400S, power 400 W, frequency 24 kHz) and a sonotrode (diameter 7 mm, approx. length 100 mm, titanium) at room temperature for 75 seconds and 75% amplitude of the ultrasound maximal power. This emulsification time was enough to disperse the oil in small droplets and to avoid excessive heating of the sample. […] Stability of emulsions to creaming and flocculation was followed over 26 days of storage at 4° C.

**Q.** For `C=CC/C(=N\OS(=O)(=O)[O-])S[C@@H]1O[C@H](CO)[C@@H](O)[C@H](O)[C@H]1O.O.[K+]` [SIN, Sinigrin hydrate (allyl glucosinolate)], which “number of maximum binding sites (nmax)” value (β-lactoglobulin (BLG); with heat treatment (85° C., 15 min)) is on record?
**A.** 8.71

**Q.** What about the “number of maximum binding sites (nmax)” value (β-lactoglobulin (BLG); without heat treatment) of the same molecule?
**A.** 15.4

**Q.** What about the “amount of bound SIN to BLG” value (β-lactoglobulin (BLG); pH 4.0 compared to 7.2) of the same molecule?
**A.** much higher at pH 4.0 compared to 7.2

**Q.** What about the “ability to produce a stable oil/water emulsion” value [1] of the same molecule?
**A.** not able to produce a stable oil/water emulsion
